In experiment [1] the target is T1, adenosine A2b receptor (A2bR) (Homo sapiens, UniProt P29275).
T1 construct: expressed in transfected cells; host or cells: CHO-K1
T1 sequence (P29275 1-332): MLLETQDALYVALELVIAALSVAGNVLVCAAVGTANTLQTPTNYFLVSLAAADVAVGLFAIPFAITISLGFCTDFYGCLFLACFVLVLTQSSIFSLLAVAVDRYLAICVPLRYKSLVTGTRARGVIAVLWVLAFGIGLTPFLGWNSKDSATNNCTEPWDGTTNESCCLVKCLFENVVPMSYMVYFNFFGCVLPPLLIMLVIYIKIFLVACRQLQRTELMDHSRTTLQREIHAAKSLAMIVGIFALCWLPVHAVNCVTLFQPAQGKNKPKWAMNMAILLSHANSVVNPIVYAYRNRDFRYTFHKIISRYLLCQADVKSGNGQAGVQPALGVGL
The experiment is described as follows: Inhibition of the adenosine A2b receptor cAMP signaling pathway in CHO-K1/A2bR cells (HTRF). It is filed as cell-based. Conditions: ethyl carbazole 1 μM, Table 2. An excerpt:
(§1) Determination of the inhibition activity of the compounds of the present invention on the adenosine A2a receptor (A2aR) cAMP signaling pathway, the adenosine A2b receptor (A2bR) cAMP signaling pathway, the adenosine A1 receptor (A1R) cAMP signaling pathway and the adenosine A3 receptor (A3R) cAMP signaling pathway.
(§2) The inhibition activity of the compounds of the present invention on the adenosine A2a receptor (A2aR) cAMP signaling pathway, the adenosine A2b receptor cAMP signaling pathway, the adenosine A1 receptor cAMP signaling pathway and the adenosine A3 receptor cAMP signaling pathway was determined by the following method. The experimental method is briefly described as follows:
2.2 Adenosine A2b Receptor
CHO-K1/A2bR cells were cultured in DMEM/F12 medium containing 10% fetal bovine serum and 1 mg/ml G418. The cells were digested with the cell separation buffer during the experiment. The cells were resuspended in the balanced salt buffer containing 20 mM HEPES and 0.1% bovine serum albumin and counted, and the cell density was adjusted to 10^6 cells/ml. In the 384-well plate, each well was added with 5 μl of cell suspension, and 2.5 μl of test compound (4× concentration) formulated with the balanced salt buffer containing 20 mM HEPES, 0.1% bovine serum albumin, 54 μM rolipram and 2.7 U/ml adenosine deaminase, and the plate was incubated at room temperature for 30 minutes. Each well was then added with 2.5 μl of […] (4× concentration) (Torcis, 1691/10) formulated with the balanced salt buffer containing 20 mM HEPES, 0.1% bovine serum albumin, 54 μM rolipram and 2.7 U/ml adenosine deaminase, and the plate was incubated at room temperature for 30 minutes. The final concentrations of the compounds were: 100000, 10000, 1000, 100, 10, 1, 0.1 and 0 nM. The final concentration of […] was 1 μM. Intracellular cAMP concentration was detected with the cAMP dynamic 2 kit. cAMP-d2 and Anti-cAMP-Eu-Cryptate were diluted respectively with the cAMP lysis buffer at a ratio of 1:4. Each well was added with 5 μl of diluted cAMP-d2, followed by addition of 5 μl of diluted Anti-cAMP-Eu-Cryptate, and the plate was incubated at room temperature in the dark for 1 hour. The HTRF signal values were read by the PHERAstar multi-function microplate reader.

For experiment [2], the target named is T2, adenosine A2a receptor (A2aR) (Homo sapiens, UniProt P29274).
T2 construct: expressed in transfected cells; host or cells: CHO-K1
T2 sequence (P29274 whole entry): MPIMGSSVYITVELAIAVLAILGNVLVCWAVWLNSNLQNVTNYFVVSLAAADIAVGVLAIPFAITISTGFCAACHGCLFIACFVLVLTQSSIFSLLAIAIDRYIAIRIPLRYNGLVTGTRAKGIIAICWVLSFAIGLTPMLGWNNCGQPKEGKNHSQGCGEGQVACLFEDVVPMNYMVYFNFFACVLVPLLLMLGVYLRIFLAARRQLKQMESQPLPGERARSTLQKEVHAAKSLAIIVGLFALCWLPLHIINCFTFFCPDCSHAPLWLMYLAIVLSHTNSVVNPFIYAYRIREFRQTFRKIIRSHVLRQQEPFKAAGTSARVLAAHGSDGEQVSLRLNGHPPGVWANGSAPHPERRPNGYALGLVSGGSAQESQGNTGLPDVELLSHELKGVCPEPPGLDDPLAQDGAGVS
Briefly: Inhibition of the adenosine A2a receptor cAMP signaling pathway in CHO-K1/A2aR cells (HTRF). It is filed as cell-based. Particulars: CHO-K1/A2aR cells, cAMP, NECA 20 nM; Table 1.
Description: as §1, §2
2.1 Adenosine A2a receptor
CHO-K1/A2aR cells were cultured in DMEM/F12 medium containing 10% fetal bovine serum and 800 μg/ml bleomycin. The cells were digested with the cell separation buffer during the experiment. The cells were resuspended in the balanced salt buffer containing 20 mM HEPES and 0.1% bovine serum albumin and counted, and the cell density was adjusted to 10^6 cells/ml. In the 384-well plate, each well was added with 5 μl of cell suspension, and 2.5 μl of test compound (4× concentration) formulated with the balanced salt buffer containing 20 mM HEPES, 0.1% bovine serum albumin, 54 μM rolipram and 2.7 U/ml adenosine deaminase, and the plate was incubated at room temperature for 30 minutes. Each well was then added with 2.5 μl of […] (4× concentration) formulated with the balanced salt buffer containing 20 mM HEPES, 0.1% bovine serum albumin, 54 μM rolipram and 2.7 U/ml adenosine deaminase, and the plate was incubated at room temperature for 30 minutes. The final concentrations of the compounds were: 10000, 2000, 400, 80, 16, 3.2, 0.64, 0.128, 0.0256, 0.00512, and 0.001024 nM. The final concentration of […] was 20 nM. Intracellular cAMP concentration was detected with the cAMP dynamic 2 kit. cAMP-d2 and Anti-cAMP-Eu-Cryptate were diluted respectively with the cAMP lysis buffer at a ratio of 1:4. Each well was added with 5 μl of diluted cAMP-d2, followed by addition of 5 μl of diluted Anti-cAMP-Eu-Cryptate, and the plate was incubated at room temperature in the dark for 1 hour. The HTRF signal values were read by the PHERAstar multi-function microplate reader.

Consider `Nc1nnc(-c2cc(Cl)c3ncccc3c2)c(-c2ccccc2)n1` [Example 4, 6-(8-Chloroquinolin-6-yl)-5-phenyl-1,2,4-triazin-3-amine], for which the half-inhibitory concentration (IC50) (in general, the point on the concentration scale where inhibition reaches its midpoint) in experiment [1] came out at 4 nM; in experiment [2] it was 0.7 nM.
On the same counts, the results for `Cc1ccc(-c2nc(N)nnc2-c2cc(C)c3ncccc3c2)o1` [Example 5, 5-(5-Methylfuran-2-yl)-6-(8-methylquinolin-6-yl)-1,2,4-triazin-3-amine] are 46 nM and 0.4 nM.
For `Cc1ccnc2ccc(-c3nnc(N)nc3-c3ccccc3)cc12` [Example 14, 6-(4-Methylquinolin-6-yl)-5-phenyl-1,2,4-triazin-3-amine], in that order: 3 nM and 0.1 nM.
On the same counts, the results for `COc1ccnc2ccc(-c3nnc(N)nc3-c3ccccc3)cc12` [Example 23, 6-(4-Methoxyquinolin-6-yl)-5-phenyl-1,2,4-triazin-3-amine] are 17 nM and 0.4 nM.
For the molecule `COc1cc(-c2nnc(N)nc2-c2ccccc2)cc2cccnc12` [Example 25, 6-(8-Methoxyquinolin-6-yl)-5-phenyl-1,2,4-triazin-3-amine], the IC50 in experiment [1] was found to be 4 nM; in experiment [2], 1.5 nM.
On the same counts, the results for `Cc1ncnc2ccc(-c3nnc(N)nc3-c3ccc(Cl)cc3)cc12` [Example 46, 5-(4-Chlorophenyl)-6-(4-methylquinazolin-6-yl)-1,2,4-triazin-3-amine] are 18 nM and 1.6 nM.

These data come from US11014904B2, “1,2,4-triazine-3-amine derivative, preparation method therefor, and use thereof in medicine” (Jiangsu Hengrui Medicine Co., Ltd., priority 2017, dated 2021).
